Biological target: T1, Human GLP-1 receptor (Homo sapiens, UniProt P43220)
T1 construct: expressed in transfected cells
Test: Measurement of GLP-1 receptor agonist activity (cAMP assay)
Format: cell-based
Conditions: for Emax: CHO-K1, hGLP-1R/CHO-K1 cells, cAMP, 100% = human GLP-1 (7-36) at 2 nM, 0% = DMSO only, read-out: Emax(%); for EC50: hGLP-1R/CHO-K1 cells, cAMP increase, 37° C. 1 hour
Method in brief: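 hGLP-1R/CHO-K1 cells in HBSS with 0.1% BSA, 20 mM HEPES, 0.1 mM IBMX and 0.2 mM RO20-1724 exposed to compound plus forskolin (400 μM stock) for 1 h at 37 °C. Intracellular cAMP read by HTRF (cAMP-d2/anti-cAMP cryptate, 1 h at room temperature).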

T1 sequence (P43220 24-463): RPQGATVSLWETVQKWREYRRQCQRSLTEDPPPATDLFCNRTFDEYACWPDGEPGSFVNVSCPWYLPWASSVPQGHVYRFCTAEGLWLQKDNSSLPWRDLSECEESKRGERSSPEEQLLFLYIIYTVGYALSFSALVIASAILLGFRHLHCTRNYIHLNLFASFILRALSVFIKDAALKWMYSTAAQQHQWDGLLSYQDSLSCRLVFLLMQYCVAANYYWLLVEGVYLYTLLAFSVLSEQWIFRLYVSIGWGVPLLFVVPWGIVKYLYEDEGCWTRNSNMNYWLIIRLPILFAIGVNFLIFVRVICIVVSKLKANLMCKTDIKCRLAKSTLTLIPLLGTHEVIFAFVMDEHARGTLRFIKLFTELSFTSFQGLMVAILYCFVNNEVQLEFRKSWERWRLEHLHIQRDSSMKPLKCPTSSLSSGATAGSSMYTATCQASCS

COc1ccc(COc2cc3c(cc2C(F)(F)F)CCN(Cc2nc4ccc(C(=O)O)nc4n2C[C@@H]2CCO2)[C@H]3C)cc1 [Compound I-175]
Emax: 101% | EC50: 3.58 nM

C[C@H]1c2cc(OCc3ccc(Cl)cn3)c(C(F)(F)F)cc2CCN1Cc1nc2ccc(C(=O)O)nc2n1C[C@@H]1CCO1 [Compound I-176]
Emax: 98.3% | EC50: 2.12 nM

Cc1csc(COc2cc3c(cc2C(F)(F)F)CCN(Cc2nc4ccc(C(=O)O)nc4n2C[C@@H]2CCO2)[C@H]3C)n1 [Compound I-177]
Emax: 107% | EC50: 3.09 nM

C[C@H]1c2cc(OCc3ccc(Cl)cc3)c(C(F)(F)F)cc2CCN1Cc1nc2ccc(C(=O)O)nc2n1C[C@@H]1CCO1 [Compound I-178]
Emax: 111% | EC50: 1.97 nM

Cc1ccc(COc2cc3c(cc2C(F)(F)F)CCN(Cc2nc4ccc(C(=O)O)nc4n2C[C@@H]2CCO2)[C@H]3C)cc1 [Compound I-179]
Emax: 99% | EC50: 1.88 nM

C[C@H]1c2cc(OCc3ccc(C4CC4)cc3)c(C(F)(F)F)cc2CCN1Cc1nc2ccc(C(=O)O)nc2n1C[C@@H]1CCO1 [Compound I-180]
Emax: 97.3% | EC50: 8.94 nM

COc1cc(Cl)ccc1COc1cc2c(cc1C(F)(F)F)CCN(Cc1nc3ccc(C(=O)O)nc3n1C[C@@H]1CCO1)[C@H]2C [Compound I-181]
Emax: 116% | EC50: 0.374 nM

C[C@H]1c2cc(OCc3ccccc3Cl)c(C(F)(F)F)cc2CCN1Cc1nc2ccc(C(=O)O)nc2n1C[C@@H]1CCO1 [Compound I-182]
Emax: 126% | EC50: 3.31 nM

C[C@H]1c2cc(OCc3ccc(F)cc3F)c(C(F)(F)F)cc2CCN1Cc1nc2ccc(C(=O)O)nc2n1C[C@@H]1CCO1 [Compound I-183]
Emax: 98% | EC50: 2.54 nM

C[C@H]1c2cc(OCc3ccc(OC(F)F)cc3F)c(C(F)(F)F)cc2CCN1Cc1nc2ccc(C(=O)O)nc2n1C[C@@H]1CCO1 [Compound I-184]
Emax: 98% | EC50: 4.75 nM

C[C@H]1c2cc(OCc3cc(F)c(Cl)cc3F)c(C(F)(F)F)cc2CCN1Cc1nc2ccc(C(=O)O)nc2n1C[C@@H]1CCO1 [Compound I-185]
Emax: 106% | EC50: 2.2 nM

C[C@H]1c2cc(OCc3ccc(C#N)cc3F)c(C(F)(F)F)cc2CCN1Cc1nc2ccc(C(=O)O)nc2n1C[C@@H]1CCO1 [Compound I-186]
Emax: 111% | EC50: 3.28 nM

C[C@H]1c2cc(OCc3ccc(F)cc3)c(C(F)(F)F)cc2CCN1Cc1nc2ccc(C(=O)O)nc2n1C[C@@H]1CCO1 [Compound I-187]
Emax: 105% | EC50: 4.2 nM

C[C@H]1c2cc(OCc3c(F)cc(F)cc3F)c(C(F)(F)F)cc2CCN1Cc1nc2ccc(C(=O)O)nc2n1C[C@@H]1CCO1 [Compound I-188]
Emax: 90.3% | EC50: 1.79 nM

COc1cc(C(=O)O)cc2c1nc(CN1CCc3cc(C(F)(F)F)c(OCc4ccc(Cl)cc4F)cc3[C@@H]1C)n2C[C@@H]1CCO1 [Compound I-189]
Emax: 122% | EC50: 0.0651 nM

COc1ccc(COc2cc3c(cc2C(F)(F)F)CCN(Cc2nc4ccc(C(=O)O)c(F)c4n2C[C@@H]2CCO2)[C@H]3C)cc1 [Compound I-190]
Emax: 109% | EC50: 1.08 nM

C[C@H]1c2cc(OCc3ccc(Cl)cn3)c(C(F)(F)F)cc2CCN1Cc1nc2ccc(C(=O)O)c(F)c2n1C[C@@H]1CCO1 [Compound I-191]
Emax: 130% | EC50: 0.644 nM

Cc1csc(COc2cc3c(cc2C(F)(F)F)CCN(Cc2nc4ccc(C(=O)O)c(F)c4n2C[C@@H]2CCO2)[C@H]3C)n1 [Compound I-192]
Emax: 123% | EC50: 1.2 nM

C[C@H]1c2cc(OCc3ccc(Cl)cc3)c(C(F)(F)F)cc2CCN1Cc1nc2ccc(C(=O)O)c(F)c2n1C[C@@H]1CCO1 [Compound I-193]
Emax: 115% | EC50: 0.73 nM

Cc1ccc(COc2cc3c(cc2C(F)(F)F)CCN(Cc2nc4ccc(C(=O)O)c(F)c4n2C[C@@H]2CCO2)[C@H]3C)cc1 [Compound I-194]
Emax: 111% | EC50: 0.741 nM

C[C@H]1c2cc(OCc3ccc(C4CC4)cc3)c(C(F)(F)F)cc2CCN1Cc1nc2ccc(C(=O)O)c(F)c2n1C[C@@H]1CCO1 [Compound I-195]
Emax: 96.3% | EC50: 3.29 nM

COc1cc(Cl)ccc1COc1cc2c(cc1C(F)(F)F)CCN(Cc1nc3ccc(C(=O)O)c(F)c3n1C[C@@H]1CCO1)[C@H]2C [Compound I-196]
Emax: 106% | EC50: 0.136 nM

C[C@H]1c2cc(OCc3ccccc3Cl)c(C(F)(F)F)cc2CCN1Cc1nc2ccc(C(=O)O)c(F)c2n1C[C@@H]1CCO1 [Compound I-197]
Emax: 119% | EC50: 1.33 nM

C[C@H]1c2cc(OCc3ccc(F)cc3F)c(C(F)(F)F)cc2CCN1Cc1nc2ccc(C(=O)O)c(F)c2n1C[C@@H]1CCO1 [Compound I-198]
Emax: 128% | EC50: 1.17 nM

C[C@H]1c2cc(OCc3ccc(OC(F)F)cc3F)c(C(F)(F)F)cc2CCN1Cc1nc2ccc(C(=O)O)c(F)c2n1C[C@@H]1CCO1 [Compound I-199]
Emax: 128% | EC50: 0.86 nM

C[C@H]1c2cc(OCc3cc(F)c(Cl)cc3F)c(C(F)(F)F)cc2CCN1Cc1nc2ccc(C(=O)O)c(F)c2n1C[C@@H]1CCO1 [Compound I-200]
Emax: 102% | EC50: 0.577 nM

C[C@H]1c2cc(OCc3ccc(Cl)cc3Cl)c(C(F)(F)F)cc2CCN1Cc1nc2ccc(C(=O)O)c(F)c2n1C[C@@H]1CCO1 [Compound I-201]
Emax: 123% | EC50: 0.274 nM

COc1ccc(COc2cc3c(cc2C(F)(F)F)CCN(Cc2nc4c(F)cc(C(=O)O)cc4n2C[C@@H]2CCO2)[C@H]3C)cc1 [Compound I-202]
Emax: 105% | EC50: 1.66 nM

C[C@H]1c2cc(OCc3ccc(Cl)cn3)c(C(F)(F)F)cc2CCN1Cc1nc2c(F)cc(C(=O)O)cc2n1C[C@@H]1CCO1 [Compound I-203]
Emax: 104% | EC50: 0.31 nM

Cc1csc(COc2cc3c(cc2C(F)(F)F)CCN(Cc2nc4c(F)cc(C(=O)O)cc4n2C[C@@H]2CCO2)[C@H]3C)n1 [Compound I-204]
Emax: 117% | EC50: 0.509 nM

C[C@H]1c2cc(OCc3ccc(Cl)cc3)c(C(F)(F)F)cc2CCN1Cc1nc2c(F)cc(C(=O)O)cc2n1C[C@@H]1CCO1 [Compound I-205]
Emax: 109% | EC50: 0.447 nM

Cc1ccc(COc2cc3c(cc2C(F)(F)F)CCN(Cc2nc4c(F)cc(C(=O)O)cc4n2C[C@@H]2CCO2)[C@H]3C)cc1 [Compound I-206]
Emax: 110% | EC50: 0.511 nM

C[C@H]1c2cc(OCc3ccc(C4CC4)cc3)c(C(F)(F)F)cc2CCN1Cc1nc2c(F)cc(C(=O)O)cc2n1C[C@@H]1CCO1 [Compound I-207]
Emax: 90.3% | EC50: 1.72 nM

COc1cc(Cl)ccc1COc1cc2c(cc1C(F)(F)F)CCN(Cc1nc3c(F)cc(C(=O)O)cc3n1C[C@@H]1CCO1)[C@H]2C [Compound I-208]
Emax: 109% | EC50: 0.0824 nM

C[C@H]1c2cc(OCc3ccccc3Cl)c(C(F)(F)F)cc2CCN1Cc1nc2c(F)cc(C(=O)O)cc2n1C[C@@H]1CCO1 [Compound I-209]
Emax: 112% | EC50: 0.984 nM

C[C@H]1c2cc(OCc3ccc(F)cc3F)c(C(F)(F)F)cc2CCN1Cc1nc2c(F)cc(C(=O)O)cc2n1C[C@@H]1CCO1 [Compound I-210]
Emax: 113% | EC50: 0.434 nM

C[C@H]1c2cc(OCc3ccc(Cl)cc3Cl)c(C(F)(F)F)cc2CCN1Cc1nc2c(F)cc(C(=O)O)cc2n1C[C@@H]1CCO1 [Compound I-211]
Emax: 103% | EC50: 0.181 nM

C[C@H]1c2cc(OCc3ccc(OC(F)F)cc3F)c(C(F)(F)F)cc2CCN1Cc1nc2c(F)cc(C(=O)O)cc2n1C[C@@H]1CCO1 [Compound I-212]
Emax: 104% | EC50: 1 nM

C[C@H]1c2cc(OCc3cc(F)c(Cl)cc3F)c(C(F)(F)F)cc2CCN1Cc1nc2c(F)cc(C(=O)O)cc2n1C[C@@H]1CCO1 [Compound I-213]
Emax: 122% | EC50: 0.366 nM

C[C@H]1c2cc(OCc3ccc(C#N)cc3F)c(C(F)(F)F)cc2CCN1Cc1nc2c(F)cc(C(=O)O)cc2n1C[C@@H]1CCO1 [Compound I-214]
Emax: 104% | EC50: 0.392 nM

C[C@H]1c2cc(OCc3ccc(C(F)F)cc3F)c(C(F)(F)F)cc2CCN1Cc1nc2ccc(C(=O)O)cc2n1C[C@@H]1CCO1 [Compound I-215]
Emax: 106% | EC50: 1.82 nM

O=C(O)c1ccc2nc(CN3CCc4cc(C(F)(F)F)c(OCc5c(F)cc(C(F)F)cc5F)cc4C3)n(C[C@@H]3CCO3)c2c1 [Compound I-216]
Emax: 103% | EC50: 8.62 nM

O=C(O)c1ccc2nc(CN3CCc4cc(C(F)(F)F)c(OCc5c(F)cc(OC(F)F)cc5F)cc4C3)n(C[C@@H]3CCO3)c2c1 [Compound I-217]
Emax: 103% | EC50: 2.34 nM

C[C@H]1c2nc(OCc3ccc(F)cc3)c(C(F)(F)F)cc2CCN1Cc1nc2ccc(C(=O)O)cc2n1C[C@@H]1CCO1 [Compound I-218]
Emax: 109% | EC50: 0.179 nM

C[C@H]1c2cc(OCc3ccc(C#N)cc3F)c(C(F)(F)F)cc2CCN1Cc1nc2ccc(C(=O)O)c(F)c2n1C[C@@H]1CCO1 [Compound I-219]
Emax: 114% | EC50: 1.2 nM

C[C@H]1c2nc(OCc3ccc(F)cc3Cl)c(C(F)(F)F)cc2CCN1Cc1nc2ccc(C(=O)O)cc2n1C[C@@H]1CCO1 [Compound I-220]
Emax: 110% | EC50: 0.251 nM

C[C@H]1c2cc(OCc3ccc(C#N)cc3F)c(Cl)cc2CCN1Cc1nc2ccc(C(=O)O)cc2n1C[C@@H]1CCO1 [Compound I-221]
Emax: 125% | EC50: 6.07 nM

O=C(O)c1ccc2nc(CN3CCc4cc(C(F)(F)F)c(OCc5ccc(Cl)cc5F)nc4C3)n(C[C@@H]3CCO3)c2c1F [Compound I-222]
Emax: 108%

C[C@H]1c2nc(OCc3ccc(Cl)cc3)c(C(F)(F)F)cc2CCN1Cc1nc2ccc(C(=O)O)c(F)c2n1C[C@@H]1CCO1 [Compound I-223]
Emax: 103% | EC50: 0.12 nM
